Data on four compounds can be found in PMC13284649, “Discovery of the PARP1 Inhibitors from Natural Compounds Using Structure-Based Virtual Screening and Bioactivity Evaluation” (Medicinal Chemistry (Shariqah (United Arab Emirates), 2025).

Like-named read-outs stand apart in the source and are kept apart here.

This test concerns the target PARP1 (poly ADP-ribose polymerase 1) (Homo sapiens, UniProt P09874). Description: PARP1 enzymatic ELISA (histone-coated plates, biotinylated NAD+, HRP luminescence). The test is classed as biochemical.

PARP1 (poly ADP-ribose polymerase 1), sequence (P09874 2-1014): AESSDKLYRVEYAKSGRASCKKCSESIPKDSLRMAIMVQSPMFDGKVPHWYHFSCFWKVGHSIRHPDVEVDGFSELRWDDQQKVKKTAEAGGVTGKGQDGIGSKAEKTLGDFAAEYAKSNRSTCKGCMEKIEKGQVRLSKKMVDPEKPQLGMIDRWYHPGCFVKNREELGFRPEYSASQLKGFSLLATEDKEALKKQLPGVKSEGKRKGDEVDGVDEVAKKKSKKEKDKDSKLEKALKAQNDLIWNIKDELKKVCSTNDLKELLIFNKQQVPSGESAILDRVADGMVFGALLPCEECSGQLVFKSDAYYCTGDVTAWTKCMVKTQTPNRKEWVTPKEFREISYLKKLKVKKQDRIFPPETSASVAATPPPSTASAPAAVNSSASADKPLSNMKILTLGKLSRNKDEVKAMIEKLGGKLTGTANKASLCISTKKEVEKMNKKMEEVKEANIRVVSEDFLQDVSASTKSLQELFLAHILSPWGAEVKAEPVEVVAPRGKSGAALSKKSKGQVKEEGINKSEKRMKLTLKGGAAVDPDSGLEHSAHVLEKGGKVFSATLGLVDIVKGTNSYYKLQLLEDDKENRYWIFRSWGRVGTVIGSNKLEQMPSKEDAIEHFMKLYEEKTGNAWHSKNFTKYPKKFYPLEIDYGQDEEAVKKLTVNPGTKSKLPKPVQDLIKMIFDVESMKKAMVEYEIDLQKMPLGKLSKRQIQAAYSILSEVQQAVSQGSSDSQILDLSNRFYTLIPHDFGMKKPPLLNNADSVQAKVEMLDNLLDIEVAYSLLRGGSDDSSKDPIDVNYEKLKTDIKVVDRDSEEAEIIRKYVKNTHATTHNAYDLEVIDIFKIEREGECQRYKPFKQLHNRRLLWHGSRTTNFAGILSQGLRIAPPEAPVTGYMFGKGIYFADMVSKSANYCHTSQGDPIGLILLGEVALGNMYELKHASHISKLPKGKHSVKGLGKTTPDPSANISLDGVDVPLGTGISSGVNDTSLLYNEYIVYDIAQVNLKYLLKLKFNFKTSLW

Regarding `COc1c2ccoc2nc2c(O)cccc12` [compound 3, 8-hydroxy dictanmnine], the IC50 (commonly the concentration that gives 50% inhibition) turned out to be 44.9 ± 8.4 µM. Consider `COc1ccc2ccc(=O)oc2c1CC(O)C(C)(C)O` (stereo not shown) [compound 4, meranzin hydrate], for which, under “read-out: IC50”, the IC50 is 67.2 ± 7.6 µM.

For `COc1ccc2ccc(=O)oc2c1CC=C(C)C` [compound 5, osthol], half-maximal inhibition (IC50) required 76.5 ± 12.4 µM. The same measure, in the same setting: the value for `COc1ccc2cc3[n+](cc2c1OC)CCc1cc(O)c(O)cc1-3` [compound 2, demethyleneberberine] was 2 ± 0.8 µM.
